Laboratory results as given in the supplement of paper PMC10307832.

Columns and labels:
Test in all cases: relative viability (nuclei count vs DMSO), 5 days (fraction); higher = more cells survive
[1] = compound: O=c1[nH]cc(F)c(=O)[nH]1 [5-Fluorouracil] + O=C(CCCCCCC(=O)Nc1ccccc1)NO [Vorinostat] (partner 1 µM)
How it was run: (§1)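 Relative viability was taken as the ratio of nuclei in treated wells to nuclei in vehicle wells. Lung cancer cell lines in 1536-well plates received compounds by pin tool one day after seeding, either one drug alone or a fixed anchor-drug dose plus five library-drug doses (not always all listed) in √10 steps. Nuclei were counted on 4× images after 5 days of treatment, and values are medians of duplicate plates.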

Staurosporine + OSI-027 = compound: CN[C@@H]1C[C@H]2O[C@@](C)([C@@H]1OC)n1c3ccccc3c3c4c(c5c6ccccc6n2c5c31)C(=O)NC4 [Staurosporine] + COc1cccc2cc(-c3nc([C@H]4CC[C@H](C(=O)O)CC4)n4ncnc(N)c34)[nH]c12 [OSI-027] (partner 0.5 µM)
How it was run: as §1

Sulindac + Crizotinib = compound: CC1=C(CC(=O)O)c2cc(F)ccc2/C1=C\c1ccc([S+](C)[O-])cc1 [Sulindac] + C[C@@H](Oc1cc(-c2cnn(C3CCNCC3)c2)cnc1N)c1c(Cl)ccc(F)c1Cl [Crizotinib] (partner 1 µM)
How it was run: as §1

Sulindac + Luminespib = compound: CC1=C(CC(=O)O)c2cc(F)ccc2/C1=C\c1ccc([S+](C)[O-])cc1 [Sulindac] + CCNC(=O)c1noc(-c2cc(C(C)C)c(O)cc2O)c1-c1ccc(CN2CCOCC2)cc1 [Luminespib] (partner 0.01 µM)
How it was run: as §1

Cell Line | relative viability ([1]; first compound 0.02 µM) | relative viability ([1]; first compound 0.2 µM) | relative viability ([1]; first compound 0.6325 µM) | relative viability ([1]; first compound 2 µM) | relative viability (Staurosporine + OSI-027; first compound 0.005 µM) | relative viability (Staurosporine + OSI-027; first compound 0.01581 µM) | relative viability (Staurosporine + OSI-027; first compound 0.05 µM) | relative viability (Staurosporine + OSI-027; first compound 0.1581 µM) | relative viability (Staurosporine + OSI-027; first compound 0.5 µM) | relative viability (Sulindac + Crizotinib; first compound 0.08 µM) | relative viability (Sulindac + Crizotinib; first compound 0.253 µM) | relative viability (Sulindac + Crizotinib; first compound 0.8 µM) | relative viability (Sulindac + Crizotinib; first compound 2.53 µM) | relative viability (Sulindac + Crizotinib; first compound 8 µM) | relative viability (Sulindac + Luminespib; first compound 0.08 µM) | relative viability (Sulindac + Luminespib; first compound 0.253 µM) | relative viability (Sulindac + Luminespib; first compound 0.8 µM) | relative viability (Sulindac + Luminespib; first compound 2.53 µM) | relative viability (Sulindac + Luminespib; first compound 8 µM)
HCC-827 | 0.556 | 0.697 | 0.348 | 0.272 | 0.875 | 0.672 | 0.476 | 0.383 | 0.211 | 0.927 | 0.98 | 0.942 | 0.914 | 0.956 | 0.566 | 0.916 | 0.475 | 0.606 | 0.412
HOP-62 | 0.629 | 0.699 | 0.626 | 0.509 | 0.554 | 0.225 | 0.125 | 0.112 | 0.0933 | 1.06 | 1.25 | 1.06 | 0.843 | 0.987 | 1.34 | 0.974 | 0.708 | 0.977 | 0.942
IA-LM | 0.906 | 0.659 | 0.274 | 0.25 |  |  |  |  |  | 0.565 | 0.804 | 0.594 | 0.677 | 1.12 |  |  |  |  | 
LC-2-ad | 0.697 | 0.589 | 0.42 | 0.256 | 0.807 | 0.25 | 0.342 | 0.216 | 0.199 | 0.423 | 0.516 | 0.404 | 0.46 | 0.466 | 1.03 | 0.947 | 1.07 | 0.994 | 1.18
LCLC-97TM1 | 0.575 | 1.07 | 0.857 | 0.272 | 0.343 | 0.234 | 0.245 | 0.203 | 0.198 | 0.435 | 0.373 | 0.319 |  | 0.418 | 0.978 | 0.847 | 0.673 | 0.644 | 0.876
LCLC-103H | 0.808 | 0.829 | 0.673 | 0.469 | 0.531 | 0.219 | 0.168 | 0.194 | 0.153 | 1.09 | 1.11 | 0.952 | 1.11 | 1.09 | 1.21 | 1.09 | 0.751 | 0.886 | 0.996
LK-2 | 0.275 | 0.3 | 0.303 | 0.304 | 0.256 | 0.158 | 0.244 | 0.151 | 0.111 | 0.185 | 0.243 |  |  | 0.216 | 0.2 | 0.18 |  |  | 0.167
LOU-NH91 | 0.937 | 0.988 | 0.607 | 0.35 | 0.767 | 0.571 | 0.487 | 0.344 | 0.213 | 0.978 | 0.768 | 0.697 | 0.688 | 0.75 | 0.322 | 0.322 | 0.314 | 0.328 | 0.401
LU99A | 0.497 | 0.479 | 0.44 | 0.302 | 0.224 | 0.164 | 0.229 | 0.155 | 0.144 | 0.636 | 0.515 | 0.543 | 0.474 | 0.57 | 0.164 | 0.315 | 0.196 | 0.243 | 0.263
LXF-289 | 0.708 | 0.67 | 0.383 | 0.309 | 0.215 | 0.0608 | 0.116 | 0.0713 | 0.051 | 0.844 | 0.868 | 0.776 | 0.85 | 0.855 | 0.821 | 0.847 | 0.58 | 0.715 | 0.611
NCI-H23 | 0.512 | 0.582 | 0.307 | 0.21 | 0.518 |  | 0.248 | 0.16 | 0.0998 | 0.39 | 0.643 | 0.359 | 0.689 | 0.504 | 0.174 |  |  | 0.234 | 0.243
NCI-H522 | 0.884 | 1.02 | 0.982 | 0.81 | 0.814 |  | 0.606 | 0.497 | 0.538 |  |  |  |  |  | 1.15 | 1.01 | 1.09 | 1.2 | 1.22
NCI-H1299 |  |  |  |  |  |  |  |  |  | 1.06 | 0.975 | 0.866 | 0.971 | 1.01 |  |  |  |  | 
NCI-H1395 | 0.728 | 0.755 | 0.645 | 0.756 | 0.605 | 0.395 | 0.42 | 0.249 | 0.239 |  |  |  |  |  | 0.713 | 0.68 | 0.611 | 0.709 | 0.643
NCI-H1563 |  |  |  |  | 0.65 | 0.573 | 0.562 | 0.523 | 0.488 | 0.84 | 0.92 | 0.806 | 0.785 | 0.888 | 0.449 | 0.553 | 0.535 | 0.551 | 0.498
NCI-H1623 |  |  |  |  | 0.517 | 0.542 | 0.547 | 0.441 | 0.304 |  |  |  |  |  | 0.424 | 0.459 | 0.51 | 0.462 | 0.507
NCI-H1648 | 0.482 | 0.389 | 0.495 | 0.263 | 0.245 | 0.199 | 0.207 | 0.293 | 0.314 |  |  |  |  |  |  |  |  |  | 
NCI-H1703 |  |  |  |  |  |  |  |  |  | 0.561 | 0.649 | 0.824 | 0.678 | 0.805 |  |  |  |  | 
NCI-H1792 |  |  |  |  |  | 0.635 | 0.347 | 0.282 | 0.323 | 1 | 1 |  | 0.944 | 1.16 | 0.409 | 0.475 |  | 0.384 | 0.627
NCI-H1793 | 0.801 | 0.814 | 0.723 | 0.502 | 0.378 |  | 0.174 | 0.0897 | 0.102 |  |  |  |  |  | 0.188 | 0.168 | 0.163 | 0.169 | 0.265
NCI-H2342 | 0.903 | 0.86 | 0.741 | 0.616 | 0.702 | 0.482 | 0.438 | 0.402 | 0.37 |  |  |  |  |  | 0.636 | 0.767 | 0.7 | 0.761 | 0.821
SW 900 | 0.628 | 0.575 | 0.562 | 0.4 | 0.334 | 0.182 | 0.204 | 0.108 | 0.0798 |  |  |  |  |  |  | 0.176 |  | 0.156 | 0.173
